Measurements: patent US8629328B2 (Monsanto Technology LLC, priority 2006, dated 2014)

Columns and labels:
Marestail Resistant (KY) = test: Dicamba, glyphosate and their combination on marestail; type: in vivo, Conyza canadensis; conditions: dicamba formulation 40 g/ha
[1] = tested on: transformed cotton plants comprising a DMO coding region
Source text: Several DNA constructs carrying a DMO coding region as disclosed herein with a transit peptide (e.g., PsRbcS CTP, CTP1, CTP2) under the control of plant gene expression elements such as a promoter (e.g. PC1SV, FMV, or e35S), and a 3′UTR (e.g. E6; Accession #U30508) were produced and transformed into cotton (Gossypium hirsutum) as follows. Nucleotide sequences/and or patent references for various expression elements are disclosed in co-pending application U.S. Ser. No. 60/891,675. Media used are noted in Table 13.
Cotton transformation was performed, for instance as described according to U.S. Patent Application Publication 20040087030, via an embryogenic approach. Explants of cotton cv Coker 130 were grown in vitro and with a liquid suspension of Agrobacterium tumefaciens carrying a DNA construct of interest, using selection on kanamycin containing media. Putative transgenic plantlets were then transferred to soil to obtain mature cotton plants.

[2] = tested on: soybean plants transformed with the DMO-encoding polynucleotide construct (Events 1-4)
Procedure: Transgenic soybean plants were obtained by Agrobacterium transformation of soybean cotyledonary nodes using standard procedures and a binary vector containing the DMO-encoding polynucleotide given as SEQ ID NO:7, which encodes the polypeptide of SEQ ID NO:8. Four transgenic soybean events were prepared and designated Events 1-4. […] Non-transgenic soybean plants were used as controls.
Transgenic and control soybean seeds were planted into 3.5-inch square plastic pots containing Redi-earth™ (Scotts-Siena Horticultural Products Co., Marysville, Ohio). […] The pots were placed on capillary matting in 35 inch×60 inch fiberglass watering trays for overhead and/or sub-irrigation for the duration of the test period so as to maintain optimum soil moisture for plant growth and were fertilized with Osmocote (14-14-14 slow release; Scotts-Siena Horticultural Products Co., Marysville, Ohio) at the rate of 100 gm/cu.ft. to sustain plant growth for the duration of greenhouse trials.
The plants were grown in greenhouses at 27°/21° C. day/night temperature with relative humidity between 25%-75% to simulate warm season growing conditions of late spring. A 14 h minimum photoperiod was provided with supplemental light at about 600 μE as needed.
Treated plants in greenhouse trials were visually assessed at a particular day after treatment (DAT) for injury on a scale of 0 to 100 percent relative to untreated control plants, with zero representing “no” injury and 100% representing “complete” injury or death. Data were collected and analyzed using suitable statistical methods.
The spray nozzle was kept at a height of about 16 inches above the top of the plant material for spraying. The spray volume was 10 gallons per acre or 93 liters per hectare.

## COc1c(Cl)ccc(Cl)c1C(=O)O [dicamba, 3,6-dichloro-o-anisic acid]
Marestail Resistant (KY)
  % Injury (18 DAT): about 52%
[1]; 0.5 lb/acre at V3-4 followed by 1 or 2 lb/acre at V5 or later stages
  tolerance to subsequent post-emergent treatment: still tolerant
[1]; post-emergent at V4-5 growth stage, 561 g ae/ha (0.5 lb/a)
  tolerance: tolerant
[1]; pre-emergence or pre-emergence and post-emergence dicamba treatment
  tolerance of R1 transgenic seeds and plants: tolerant
[2]; approximately 2× rate of application of 1122 g/ha
  injury to transgenic dicamba tolerant plants: less than 2%
[2]; at sowing + post-emergence, overall dicamba rate 10080 g/ha, 9 lb/acre, 18× labeled rate
  injury to transgenic plants: less than 20%
[2]; late pre-emergence + post-emergence, overall 10080 g/ha, 9 lb/acre, 18× labeled rate
  injury to transgenic events: less than 20%
[2]; late pre-emergence at soil cracking, 5040 g/ha, 4.5 lb/acre, 9× labeled rate
  injury in the transgenic events: less than 5%
